Results reported in US20170157212A1, “CDK MODULATORS AND METHODS FOR THE TREATMENT OF CANCER” (Salk Institute for Biological Studies, priority 2015, published 2017).
“Also recorded” adds a separate entry of the source.

Tests used:
CDK7 = biological target: T1, CDK7 (Homo sapiens, UniProt P50613); assay: Co-immunoprecipitation of CRIF1 with CDK7; assay type: binding
T1 construct: endogenous in cells
Excerpt: (§1) FIGS. 5A-5I. The Mitochondrial OX-PHOS Regulator, CRIF1, is a Novel Subunit of the Human CDK12 Kinase Complex. (A) Identification of CRIF1 as a near-stoichiometric subunit of the native CDK12 kinase complex. MudPIT analysis of CDK12 complexes from HEK293 cells that stably express HA-tagged full-length human CDK12. The HA-CDK12 complex was affinity-purified using anti-HA antibody and visualized by SDS-PAGE and silver-stain. (B) List of the identified proteins in the HA-CDK12 complex from (A). (C) Endogenous CRIF1 co-immunoprecipitates with native CDK12 in U2OS cell extracts. Shown is an immunoblot analysis of CRIF1, CCNK, and the chaperone proteins CDC37 and HSP90 in an anti-CDK12 immunoprecipitate. (D) CRIF1 is a specific subunit of the CDK12 complex. Native CRIF1 was immunoprecipitated from U2OS cells using an anti-CRIF1 antibody and analyzed by co-immunoprecipitation for association with various CDKs, as indicated. […] FLAG-CRIF1 proteins containing different C-terminal truncations were co-expressed with HA-CDK12 (aa 985-1490) and analyzed for binding by co-immunoprecipitation and immunoblot. […] Cell viability was analyzed after 72 hr. […] Expression of the mitochondrial MTCO-1 (COX1) protein was assessed using two different antisera. […] Each fraction (T; total, C:cytosolic, M:membrane/organelle, and N:nuclear) was analyzed by immunoblot using the indicated antibodies. […]

CDK8 = biological target: T2, CDK8 (Homo sapiens, UniProt P49336); assay: Co-immunoprecipitation of CRIF1 with CDK8; assay type: binding
T2 construct: endogenous in cells
Excerpt: as §1

[1] = biological target: T3, affinity-purified CDK9/P-TEFb complex (Homo sapiens, UniProt P50750); assay: In vitro kinase assay: CDK9/P-TEFb phosphorylation of GST-CTD; assay type: biochemical; settings: affinity-purified FLAG-CDK9 kinase, immunoblot
T3 construct: FLAG; made in house
Excerpt: (A) CRIF1 and CDK12 have opposite effects on global RNAPII CTD-Ser2P levels in vivo. U2OS cells were transfected with indicated siRNAs for 48 hr, and RNAPII phosphorylation was monitored by immunoblot using phospho-specific CTD (Ser2P and Ser5P) antibodies. (B) Knockdown of CRIF1 up-regulates CHK1 expression and induction of p53. […] (C) Analysis of steady-state mRNA levels by qRT-PCR in extracts from U2OS cells exposed to control (CTL) or CRIF1-specific siRNAs, as indicated. (D) Depletion of CRIF1 enhances 4E-BP1 phosphorylation at S65 and T70 in vivo, as assessed by immunoblot using phospho-specific antibodies. (E) CRIF1 inhibits RNAPII CTD-Ser2 phosphorylation by CDK12 complexes in vitro. The human GST-CTD (52 repeat) protein was incubated in vitro with the affinity-purified HA-CDK12 kinase complex in the absence or presence of increasing levels of purified recombinant CRIF1, and analyzed by immunoblot with the indicated antisera. […] Analysis of GST-CTD Ser2 phosphorylation was carried out as described in (E), using the affinity-purified FLAG-CDK9 kinase. (G) CRIF1 inhibits 4E-BP1 phosphorylation by CDK12 in vitro. […] was monitored by immunoblot in the absence or in the presence of different levels of affinity-purified recombinant CRIF1. […]

[2] = biological target: T4, mTORC1/Raptor kinase complex (Homo sapiens, UniProt P42345); assay: In vitro kinase assay: mTORC1 phosphorylation of recombinant 4E-BP1 (T37/46); assay type: biochemical; settings: same reactions with CDK12 and mTORC1/Raptor
T4 construct: made in house
Excerpt: To enable priming of 4E-BP1 by mTORC1, these reactions contained both affinity-purified CDK12 and the mTORC1/Raptor kinase complexes. […] Consistent with a gain-of-function for CDK12 kinase activity in CRIF1 knockdown cells, enhanced binding of eIF4G to target mRNAs was observed (FIG. 6H, upper panel) that were identified previously by RIP-seq, with no effects on total mRNA levels (FIG. 6H, bottom panel).

T1 sequence (P50613 whole entry): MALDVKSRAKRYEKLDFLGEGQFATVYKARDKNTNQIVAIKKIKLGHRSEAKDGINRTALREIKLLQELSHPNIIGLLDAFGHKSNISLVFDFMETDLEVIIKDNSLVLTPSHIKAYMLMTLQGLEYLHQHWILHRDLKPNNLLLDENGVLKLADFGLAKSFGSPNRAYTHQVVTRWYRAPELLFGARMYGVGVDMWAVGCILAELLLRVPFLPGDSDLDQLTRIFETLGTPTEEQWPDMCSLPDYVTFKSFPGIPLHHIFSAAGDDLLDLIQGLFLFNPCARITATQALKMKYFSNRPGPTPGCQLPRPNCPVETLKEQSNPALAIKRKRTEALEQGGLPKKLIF
T2 sequence (P49336 whole entry): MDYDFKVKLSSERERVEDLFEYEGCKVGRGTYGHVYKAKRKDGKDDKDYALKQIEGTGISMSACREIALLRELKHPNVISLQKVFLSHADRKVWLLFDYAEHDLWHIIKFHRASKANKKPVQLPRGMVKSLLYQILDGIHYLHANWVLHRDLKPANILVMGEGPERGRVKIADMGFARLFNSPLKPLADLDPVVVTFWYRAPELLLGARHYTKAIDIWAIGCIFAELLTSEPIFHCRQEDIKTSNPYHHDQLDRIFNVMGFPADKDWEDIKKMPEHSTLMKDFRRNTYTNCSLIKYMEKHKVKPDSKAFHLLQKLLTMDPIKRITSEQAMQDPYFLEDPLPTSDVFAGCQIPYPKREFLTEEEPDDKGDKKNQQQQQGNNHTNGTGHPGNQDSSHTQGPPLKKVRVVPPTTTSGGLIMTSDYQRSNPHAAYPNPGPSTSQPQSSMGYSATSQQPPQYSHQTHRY
T3 sequence (P50750 whole entry): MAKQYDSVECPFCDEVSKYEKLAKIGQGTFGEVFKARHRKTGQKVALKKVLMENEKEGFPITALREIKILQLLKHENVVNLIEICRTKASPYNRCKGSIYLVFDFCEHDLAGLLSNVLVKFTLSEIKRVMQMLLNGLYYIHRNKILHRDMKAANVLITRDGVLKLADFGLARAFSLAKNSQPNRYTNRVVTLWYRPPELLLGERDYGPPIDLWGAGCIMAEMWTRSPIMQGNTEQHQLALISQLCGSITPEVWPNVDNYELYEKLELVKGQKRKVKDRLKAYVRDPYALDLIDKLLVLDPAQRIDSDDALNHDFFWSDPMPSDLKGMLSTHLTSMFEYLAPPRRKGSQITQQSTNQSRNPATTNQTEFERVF
T3 sequence (O60563 whole entry partner): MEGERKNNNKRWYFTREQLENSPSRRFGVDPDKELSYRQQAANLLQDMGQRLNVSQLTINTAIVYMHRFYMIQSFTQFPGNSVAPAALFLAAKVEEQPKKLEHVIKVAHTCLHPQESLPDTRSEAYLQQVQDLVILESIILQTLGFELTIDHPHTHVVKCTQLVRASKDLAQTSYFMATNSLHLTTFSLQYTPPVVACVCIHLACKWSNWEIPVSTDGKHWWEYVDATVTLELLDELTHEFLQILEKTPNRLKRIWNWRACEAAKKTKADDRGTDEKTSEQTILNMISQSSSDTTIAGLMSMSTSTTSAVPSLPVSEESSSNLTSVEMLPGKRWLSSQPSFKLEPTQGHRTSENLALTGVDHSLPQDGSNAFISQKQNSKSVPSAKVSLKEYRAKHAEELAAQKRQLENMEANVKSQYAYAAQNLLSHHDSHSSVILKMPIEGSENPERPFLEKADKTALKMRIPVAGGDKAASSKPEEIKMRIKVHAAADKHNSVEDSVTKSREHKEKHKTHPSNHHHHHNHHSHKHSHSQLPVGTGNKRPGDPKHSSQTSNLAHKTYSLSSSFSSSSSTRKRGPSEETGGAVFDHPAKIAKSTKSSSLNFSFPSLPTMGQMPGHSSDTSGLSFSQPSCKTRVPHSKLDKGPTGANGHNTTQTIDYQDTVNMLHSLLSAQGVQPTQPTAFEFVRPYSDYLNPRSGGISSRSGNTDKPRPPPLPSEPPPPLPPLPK

CDK9/P-TEFb phosphorylation of the GST-CTD substrate ([1]; listed as Recombinant CRIF1): does not inhibit
CDK9/P-TEFb phosphorylation of the GST-CTD substrate ([1]; listed as rCRIF): no effect
phosphorylation of the T37/46 sites of 4E-BP1 by mTORC1 [2]: without affecting
Substance: Growth Arrest and DNA Damage-Inducible Proteins-Interacting Protein 1 [CRIF1]
presence in / binding to CDK7 complexes (CDK7): not present; also recorded: does not bind
presence in / binding to CDK8 complexes (CDK8): not present; also recorded: does not bind
